How the values were obtained:
HCT116 cells = assay: Co-culture model of HCT116 and NCM460, FITC-Annexin V flow cytometry; format: cell-based, human; details: HCT116 in co-culture with CMF2HC-stained NCM460, 2 μM, 24 h
Description: (§1) To further verify the ability of 1 to selectively induce apoptosis of HCT116 cells over NCM460 cells, HCT116 and NCM460 cells were co-cultured and incubated with 1 for 24 h, and then stained with FITC-Annexin V and propidium iodide. In order to differentiate the two different cell lines, NCM460 cells were pre-treated with blue-emissive CMF2HC dye prior to its co-culture with HCT116 cells. […] In a parallel experiment, co-cultured cells treated with 1 for 24 h and stained with FITC-Annexin V and propidium iodide were imaged by fluorescence microscopy (Fig. 4a). Green and red fluorescence were primarily observed in cells without showing blue luminescence, i.e. HCT116 cells. […] The results of both the fluorescence microscopy and flow cytometry support the high selectivity of 1 on killing colon cancer cells in the co-culture model of cancer and normal cells.
(§2) atmosphere of 5% CO2. After reaching 80% confluency, the culture medium was
(§3) of 5% CO2 for 45 min. The solution was then removed. The stained NCM460 cells
(§4) the procedure described above.
(§5) right fore of BALB/c nude mice. When the tumor volume reached 70 mm3 after […]

NCM460 cells = assay: as above; format: cell-based, human; details: CMF2HC-stained NCM460 in co-culture with HCT116, 2 μM, 24 h
Description: as §1, §2, §3, §4, §5

[Au(TPP–COO–PEG5000–OCH3)]Cl [Compound 1]
cells undergoing apoptosis (FITC-Annexin V, corrected) (HCT116 cells): 20.6% | cells undergoing apoptosis (FITC-Annexin V, corrected) (NCM460 cells): 1.87%

Source: PMC5384453, “A multi-functional PEGylated gold(III) compound: potent anti-cancer properties and self-assembly into nanostructures for drug co-delivery” (Chemical Science, 2016)
